According to patent US20190369111A1, “MOLECULAR KINETICS EVALUATION METHOD AND SCREENING METHOD” (Tokyo University of Science Foundation, priority 2016, published 2019):

Target: T1, wild-type p53 protein (Mus musculus, UniProt P02340)
T1 construct: administered intraperitoneally to C57BL/6J wild-type mice; from tissue; host or cells: C57BL/6J wild-type mice: liver, kidneys, spleen, heart
Test: Degradation of wild-type p53 protein in each tissue of mouse after administration, Western blot analysis
Type: in vivo
Protocol: TIBC-CANDDY_MLN was dissolved in DMSO immediately before administration, and then dissolved in corn oil (Code No. 25606-55, Nacalai Tesque) so that the concentration of DMSO was 10 vol %, and then a dose of 50 mg/kg body weight or 100 mg/kg body weight was administered intraperitoneally to C57BL/6J wild-type mice (7 to 8 weeks old, male) (CLEA Japan, Inc.) (n=3). As a control, an injection carrier (corn oil containing 10 vol % DMSO) was used. The mice were kept under an environment of ad libitum access to food and water. The mice were dissected under deep anesthesia by Somnopentyl (Kyoritsu Seiyaku Corporation) 48 hours after administration. Abdominal section was performed, and then the liver, kidneys, spleen, and heart were sequentially extracted and flash frozen in liquid nitrogen. Each tissue frozen in liquid nitrogen was stored in a deep freezer at −80° C.
The frozen tissues (spleen: 0.02 g, other tissues: 0.04 g) were each frozen and triturated, and then 1×TKM tissue lysis buffer (50 mM triethanolamine (pH 7.8), 50 mM KCl, 5 mM MgCl2, 0.25 M sucrose, 1 mM PMSF, protein inhibitors cocktail-EDTA free (Code No. 03969-21, Nacalai Tesque), 1 mM DTT, and 5 μL/mL recombinant RNase inhibitor (40 U/μL, Cat No. 2313A, Lot No. K8402DA, TAKARA Bio)) were added in an amount of 490 μL for the spleen and 980 μL for the others, and dissolved by rotation for 15 minutes (1 rpm, 25° C.). Then, the resultant product was subjected to centrifugation (at 3000 rpm×15 minutes, 4° C.), and the supernatants (each tissue extract) was collected. The concentration of proteins in each tissue extract was quantified with a spectrophotometer using each tissue extract that had been diluted 20 times using DEPC-treated water.
Each tissue extract collected was subjected to Western blot analysis. An SDS-PAGE gel was prepared using TGX™ FastCast™ Acrylamide Kit, 12% (Bio-Rad). Electrophoresis samples were prepared in a 6×SDS-PAGE sample buffer (62.5 mM Tris-HCl pH 6.8, 2% SDS, 5% 2-mercaptoethanol, 10% glycerol, 0.25% BPB), and placed on a heat block at 95° C. for 5 minutes. The electrophoresis samples prepared were applied at 50 μg/well for detecting GAPDH, and at 100 μg/well for other detection. Electrophoresis was performed at 160 V for 60 minutes (electrophoresis buffer; 195 mM glycine, 25 mM Tris).
After electrophoresis, proteins were transferred to a PVDF membrane (Immobion™-P, Millipore) under conditions of 100 V and 1.5 hours using a tank-type blotting device and a transfer buffer (25 mM Tris-HCl, 195 mM glycine, 0.01% SDS, 15% methanol). The membrane was split into two at the position of a 25 kDa marker. The membrane after transfer was shaken and blocked in 5% skim milk/TBS-T (100 mM Tris-HCl, 150 mM NaCl, 0.1% Tween-20, pH 7.6) at room temperature for 30 minutes. After blocking, a primary antibody reaction was performed in 5% skim milk/TBS-T. As the primary antibody, an anti-p53 antibody (MAB1355, R&D Systems, Inc., diluted 500 times), an anti-MDM2 antibody (sc-965, SantaCruz, diluted 500 times), and an anti-GAPDH antibody (sc-32233, SantaCruz, diluted 20000 times) were used. The membrane was shaken at room temperature for 60 minutes, and then the membrane was washed with TBS-T for 5 minutes. […] Subsequently, the membrane was treated with a chemiluminescence reagent Immobilon™ Western (Millipore), and then chemiluminescence was detected using a lumino image analyzer LAS-3000 (FUJIFILM Corporation). Detected bands were quantified with an image processing software ImageJ (NIH).

T1 sequence (P02340 whole entry): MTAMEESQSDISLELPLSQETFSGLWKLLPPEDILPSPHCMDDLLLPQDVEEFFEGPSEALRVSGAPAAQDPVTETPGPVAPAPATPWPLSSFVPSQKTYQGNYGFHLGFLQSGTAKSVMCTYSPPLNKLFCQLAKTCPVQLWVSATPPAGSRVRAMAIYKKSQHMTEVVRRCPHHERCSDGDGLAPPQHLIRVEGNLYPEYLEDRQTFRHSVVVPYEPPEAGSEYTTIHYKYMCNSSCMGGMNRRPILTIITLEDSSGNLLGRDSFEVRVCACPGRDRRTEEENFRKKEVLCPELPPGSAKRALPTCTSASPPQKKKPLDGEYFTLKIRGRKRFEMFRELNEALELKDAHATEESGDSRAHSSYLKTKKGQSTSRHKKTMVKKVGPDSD

CC(C)C[C@H](NC(=O)CNC(=O)c1cc(Cl)ccc1Cl)C(=O)NCCCCCCC(=O)Nc1ccc(C(=O)/C=C/c2ccc(I)cc2)cc1 [TIBC-CANDDY_MLN]
amount of wild-type p53 protein in heart (intraperitoneal 50 or 100 mg/kg body weight, 48 hours after administration, heart): reduced in a concentration dependent manner
amount of wild-type p53 protein in kidneys (intraperitoneal 50 or 100 mg/kg body weight, 48 hours after administration, kidneys): reduction of the target was not found
amount of wild-type p53 protein in spleen (intraperitoneal 50 or 100 mg/kg body weight, 48 hours after administration, spleen): reduced in a concentration dependent manner
amount of wild-type p53 protein in liver (intraperitoneal, only at a dose of 100 mg/kg body weight, 48 hours after administration, liver): reduced slightly
transfer property to tissues (molecular kinetics) (suggested from p53 and MDM2 degradation in tissues): showed a higher transfer property to the heart, liver, and spleen as compared with the kidneys
